According to patent US9833497B2, “Human originated EGF domain proteins and use of the same” (CHENGDU SOURCEBIO LIMITED-LIABILITY COMPANY, priority 2013, dated 2017):

Tests used:
Assay type in all cases: cell-based
Klebsiella pneumonia = assay: MIC against Gram-negative bacteria: Klebsiella pneumonia; conditions: for MIC against K. pneumonia: 96-well plate, 37° C., 10 h; for MIC against K. pneumonia / MIC K. pneumonia: 5×10^5 CFU/mL; for MIC K. pneumonia: two-fold serial dilution
How it was run: (§1)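 MIC, the lowest recombinant protein concentration giving no bacterial growth, found by two-fold serial dilution of human EGF-domain proteins in triplicate. Inoculum 5×10^5 CFU/mL in LB from cultures at McFarland 0.5; plates incubated at 37° C, 175 rpm shaking.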

E. coli DH5α = assay: Antibacterial activity: MIC and growth curve against E. coli DH5α in 96-well plate; conditions: minimal inhibitory concentration against E. coli DH5α; 96-well plate, 5×10^5 CFU/mL, 37° C., judged after 8 h
How it was run: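 MIC taken as lowest protein level with no bacterial growth, tracked by A600 every 30 min during 37 °C, 175 rpm culture. Two-fold protein series 50-12.5 μg/mL final, triplicate wells, against 5×10^5 CFU/mL of LB-washed mid-log cells.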

Proteus mirabilis = assay: MIC against Gram-negative bacteria: Proteus mirabilis; conditions: for MIC against P. mirabilis: 96-well plate, 37° C., 10 h; for MIC against P. mirabilis / MIC P. mirabilis: 5×10^5 CFU/mL; for MIC P. mirabilis: two-fold serial dilution
How it was run: as §1

E. coli BL21 = assay: MIC against Gram-negative bacteria: E. coli BL21; conditions: for MIC against E. coli BL21: 96-well plate, 37° C., 10 h; for MIC against E. coli BL21 / MIC E. coli BL21: 5×10^5 CFU/mL; for MIC E. coli BL21: two-fold serial dilution
How it was run: as §1

Pseudomonas aeruginosa = assay: MIC against Gram-negative bacteria: Pseudomonas aeruginosa; conditions: for MIC against P. aeruginosa: 96-well plate, 37° C., 10 h; for MIC against P. aeruginosa / MIC P. aeruginosa: 5×10^5 CFU/mL; for MIC P. aeruginosa: two-fold serial dilution
How it was run: as §1

Proteus vulgaris = assay: MIC against Gram-negative bacteria: Proteus vulgaris; conditions: for MIC against P. vulgaris: 96-well plate, 37° C., 10 h; for MIC against P. vulgaris / MIC P. vulgaris: 5×10^5 CFU/mL; for MIC P. vulgaris: two-fold serial dilution
How it was run: as §1

Moraxella catarrhalis = assay: MIC against Gram-negative bacteria: Moraxella catarrhalis; conditions: for MIC against M. catarrhalis: 96-well plate, 37° C., 10 h; for MIC against M. catarrhalis / MIC M. catarrhalis: 5×10^5 CFU/mL; for MIC M. catarrhalis: two-fold serial dilution
How it was run: as §1

Serratia marcescens = assay: MIC against Gram-negative bacteria: Serratia marcescens; conditions: for MIC against S. marcescens: 96-well plate, 37° C., 10 h; for MIC against S. marcescens / MIC S. marcescens: 5×10^5 CFU/mL; for MIC S. marcescens: two-fold serial dilution
How it was run: as §1

Citrobacter diversus = assay: MIC against Gram-negative bacteria: Citrobacter diversus; conditions: for MIC against C. diversus: 96-well plate, 37° C., 10 h; for MIC against C. diversus / MIC C. diversus: 5×10^5 CFU/mL; for MIC C. diversus: two-fold serial dilution
How it was run: as §1

Aeromonas hydrophila = assay: MIC against Gram-negative bacteria: Aeromonas hydrophila; conditions: for MIC against A. hydrophila: 96-well plate, 37° C., 10 h; for MIC against A. hydrophila / MIC A. hydrophila: 5×10^5 CFU/mL; for MIC A. hydrophila: two-fold serial dilution
How it was run: as §1

Enterobacter cloacae = assay: MIC against Gram-negative bacteria: Enterobacter cloacae; conditions: for MIC against E. cloacae: 96-well plate, 37° C., 10 h; for MIC against E. cloacae / MIC E. cloacae: 5×10^5 CFU/mL; for MIC E. cloacae: two-fold serial dilution
How it was run: as §1

| Substance | MIC (E. coli DH5α) [mg/L] | MIC K. pneumonia (Klebsiella pneumonia; 10 h cultivation at 37° C.) [mg/L] | MIC P. mirabilis (Proteus mirabilis; 10 h cultivation at 37° C.) [mg/L] | MIC E. coli BL21 (E. coli BL21; 10 h cultivation at 37° C.) [mg/L] | MIC P. aeruginosa (Pseudomonas aeruginosa; 10 h cultivation at 37° C.) [mg/L] | MIC P. vulgaris (Proteus vulgaris; 10 h cultivation at 37° C.) [mg/L] | MIC M. catarrhalis (Moraxella catarrhalis; 10 h cultivation at 37° C.) [mg/L] | MIC S. marcescens (Serratia marcescens; 10 h cultivation at 37° C.) [mg/L] | MIC C. diversus (Citrobacter diversus; 10 h cultivation at 37° C.) [mg/L] | MIC A. hydrophila (Aeromonas hydrophila; 10 h cultivation at 37° C.) [mg/L] | MIC E. cloacae (Enterobacter cloacae; 10 h cultivation at 37° C.) [mg/L] | also measured |
| --- | --- | --- | --- | --- | --- | --- | --- | --- | --- | --- | --- | --- |
| PRT557 (CGCSPAGTLPEGCDEAGRCLCQPEFAGPHCDRCRPGYHGFPNCQA; listed as Homo sapiens) | 12.5 |  |  |  |  |  |  |  |  |  |  | MIC against K. pneumonia (Klebsiella pneumonia): 25 mg/L; MIC against P. mirabilis (Proteus mirabilis): 12.5 mg/L; MIC against E. coli BL21 (E. coli BL21): 25 mg/L; MIC against P. aeruginosa (Pseudomonas aeruginosa): 12.5 mg/L; MIC against P. vulgaris (Proteus vulgaris): 25 mg/L; MIC against M. catarrhalis (Moraxella catarrhalis): 25 mg/L; MIC against S. marcescens (Serratia marcescens): 12.5 mg/L; MIC against C. diversus (Citrobacter diversus): 12.5 mg/L; MIC against A. hydrophila (Aeromonas hydrophila): 25 mg/L; MIC against E. cloacae (Enterobacter cloacae): 12.5 mg/L |
| PRT1131 (RMPGCQHGTCHQPWQCICHSGWAGKFCD; listed as Homo sapiens) | 50 | 12.5 | 12.5 | 12.5 | 50 | 50 | 50 | 12.5 | 12.5 | 25 | 50 |  |
| PRT1184 (NPNDCLPDPCHSRGRCYDLVNDFYCACDDGWKGKTCH; listed as Homo sapiens) | 50 | 25 | 25 | 25 | 12.5 | 12.5 | 50 | 25 | 25 | 12.5 | 50 |  |
| PRT1132 (DEHICTTQSPCQNGGQCMYDGGGEYHCVCLPGFHGRDCE; listed as Homo sapiens) | 50 | 12.5 | 25 | 12.5 | 50 | 50 | 12.5 | 25 | 50 | 12.5 | 50 |  |
| PRT920 (DVDECQLMPNACQNGGTCHNTHGGYNCVCVNGWTGEDCS; listed as Homo sapiens) | 12.5 |  |  |  |  |  |  |  |  |  |  | MIC (Klebsiella pneumonia; K. pneumonia, 10 h cultivation at 37° C.): 50 mg/L; MIC (Proteus mirabilis; P. mirabilis, 10 h cultivation at 37° C.): 50 mg/L; MIC (E. coli BL21; E. coli BL21, 10 h cultivation at 37° C.): 25 mg/L; MIC (Pseudomonas aeruginosa; P. aeruginosa, 10 h cultivation at 37° C.): 25 mg/L; MIC (Proteus vulgaris; P. vulgaris, 10 h cultivation at 37° C.): 12.5 mg/L; MIC (Moraxella catarrhalis; M. catarrhalis, 10 h cultivation at 37° C.): 12.5 mg/L; MIC (Serratia marcescens; S. marcescens, 10 h cultivation at 37° C.): 50 mg/L; MIC (Citrobacter diversus; C. diversus, 10 h cultivation at 37° C.): 50 mg/L; MIC (Aeromonas hydrophila; A. hydrophila, 10 h cultivation at 37° C.): 25 mg/L; MIC (Enterobacter cloacae; E. cloacae, 10 h cultivation at 37° C.): 12.5 mg/L |
| PRT1293 (KLDFCAQDLNPCQHDSKCILTPKGFKCDCTPGYVGEHCD; listed as Homo sapiens) | 25 |  |  |  |  |  |  |  |  |  |  | MIC against K. pneumonia (Klebsiella pneumonia; Klebsiella pneumonia): 50 mg/L; MIC against P. mirabilis (Proteus mirabilis; Proteus mirabilis): 12.5 mg/L; MIC against E. coli BL21 (E. coli BL21; E. coli BL21): 12.5 mg/L; MIC against P. aeruginosa (Pseudomonas aeruginosa; Pseudomonas aeruginosa): 25 mg/L; MIC against P. vulgaris (Proteus vulgaris; Proteus vulgaris): 50 mg/L; MIC against M. catarrhalis (Moraxella catarrhalis; Moraxella catarrhalis): 12.5 mg/L; MIC against S. marcescens (Serratia marcescens; Serratia marcescens): 12.5 mg/L; MIC against C. diversus (Citrobacter diversus; Citrobacter diversus): 12.5 mg/L; MIC against A. hydrophila (Aeromonas hydrophila; Aeromonas hydrophila): 50 mg/L; MIC against E. cloacae (Enterobacter cloacae; Enterobacter cloacae): 12.5 mg/L |
